Source: patent publication US9650379B2 (CHONG KUN DANG PHARMACEUTICAL CORP., priority 2013, dated 2017)

How the values were obtained:
[1] = target: T1, HDAC6 human recombinant (Homo sapiens, UniProt Q9UBN7); assay: Inhibition of HDAC6 activity (fluorimetric assay); assay type: biochemical; conditions: test concentrations 0.1, 1, 10, 100 and 1000 nM; 37° C., 60 minutes
T1 construct: purchased Calbiochem 382180
T1 sequence (Q9UBN7 1-1215): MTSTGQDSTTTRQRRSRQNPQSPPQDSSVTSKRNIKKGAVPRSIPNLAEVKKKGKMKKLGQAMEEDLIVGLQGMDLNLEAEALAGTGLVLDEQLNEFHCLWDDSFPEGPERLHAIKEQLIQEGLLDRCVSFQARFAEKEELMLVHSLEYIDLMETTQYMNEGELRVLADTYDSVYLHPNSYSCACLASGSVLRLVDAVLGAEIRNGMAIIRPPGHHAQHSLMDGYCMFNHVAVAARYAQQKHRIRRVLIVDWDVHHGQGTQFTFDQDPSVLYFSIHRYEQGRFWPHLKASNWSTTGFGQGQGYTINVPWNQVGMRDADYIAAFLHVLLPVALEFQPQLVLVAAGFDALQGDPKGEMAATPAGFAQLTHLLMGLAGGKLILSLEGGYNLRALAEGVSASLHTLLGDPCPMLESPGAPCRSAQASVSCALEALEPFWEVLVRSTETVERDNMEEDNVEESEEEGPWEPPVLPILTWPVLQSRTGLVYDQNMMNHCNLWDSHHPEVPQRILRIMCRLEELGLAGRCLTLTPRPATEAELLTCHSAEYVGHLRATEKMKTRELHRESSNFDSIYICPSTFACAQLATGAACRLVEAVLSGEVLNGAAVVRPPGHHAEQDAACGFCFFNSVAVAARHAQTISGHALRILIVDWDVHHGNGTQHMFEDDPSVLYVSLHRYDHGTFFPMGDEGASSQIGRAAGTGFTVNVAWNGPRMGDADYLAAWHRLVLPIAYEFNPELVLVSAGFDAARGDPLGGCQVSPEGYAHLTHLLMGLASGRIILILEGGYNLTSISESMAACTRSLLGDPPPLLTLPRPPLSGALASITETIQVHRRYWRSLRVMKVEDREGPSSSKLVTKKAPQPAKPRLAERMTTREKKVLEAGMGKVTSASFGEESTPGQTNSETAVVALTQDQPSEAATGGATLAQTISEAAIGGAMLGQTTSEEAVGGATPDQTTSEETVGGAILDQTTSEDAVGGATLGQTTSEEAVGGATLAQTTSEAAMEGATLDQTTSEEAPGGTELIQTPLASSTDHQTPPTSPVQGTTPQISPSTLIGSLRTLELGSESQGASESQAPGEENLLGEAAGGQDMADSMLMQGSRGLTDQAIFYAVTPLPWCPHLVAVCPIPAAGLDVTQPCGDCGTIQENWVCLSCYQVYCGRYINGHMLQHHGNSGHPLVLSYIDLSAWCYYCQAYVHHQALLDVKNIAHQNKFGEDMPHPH
Summary of the method: (§1)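 HDAC1 tested with the kit assay mixture at 100, 1000 and 10000 nM compound; recombinant human HDAC6 at 0.1, 1, 10, 100 and 1000 nM. Reaction ran 60 min at 37° C, then developer was added for 30 min at 37° C and fluorescence quantified.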

[2] = target: T2, HDAC1 (Homo sapiens, UniProt Q13547); assay: Inhibition of HDAC1 activity (HDAC1 fluorimetric drug discovery assay kit); assay type: biochemical; conditions: test concentrations 100, 1000 and 10000 nM; 37° C., 60 minutes
T2 construct: purchased Enzolifesciences BML-AK511
T2 sequence (Q13547 whole entry): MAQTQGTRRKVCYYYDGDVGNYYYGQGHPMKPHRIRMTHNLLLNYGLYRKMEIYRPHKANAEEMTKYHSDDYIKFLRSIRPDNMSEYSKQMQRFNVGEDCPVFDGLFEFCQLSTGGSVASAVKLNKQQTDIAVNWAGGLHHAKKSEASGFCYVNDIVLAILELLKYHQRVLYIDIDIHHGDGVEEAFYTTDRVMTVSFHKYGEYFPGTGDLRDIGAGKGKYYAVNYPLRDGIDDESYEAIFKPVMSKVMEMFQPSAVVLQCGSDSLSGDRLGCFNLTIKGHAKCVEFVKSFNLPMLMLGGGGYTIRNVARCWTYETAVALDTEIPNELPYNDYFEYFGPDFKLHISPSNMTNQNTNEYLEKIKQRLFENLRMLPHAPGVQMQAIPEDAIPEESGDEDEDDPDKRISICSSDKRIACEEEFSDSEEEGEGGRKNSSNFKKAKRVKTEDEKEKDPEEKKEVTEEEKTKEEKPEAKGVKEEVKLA
Summary of the method: as §1

[3] = tested on: tubulin acetylation (HDAC6) in RPMI8226 cells; assay: Western blot analysis of tubulin acetylation in cells; assay type: cell-based; conditions: 24 hours, Western blot (FIG. 1)
Method: Specifically, RPMI8226 cells were seeded into a six-well plate at a density of 1.0×10^6 cells/well, and then treated with varying concentrations of each of compounds 636 and 642. After 24 hours, protein was extracted from the cells using RIPA buffer and quantified by the Bradford method. 25 μg of the protein was dissolved to sample buffer and electrophoresed on 4-12% gradient gel, and the gel was transferred to a nitrocellulose membrane for 50 minutes. The membrane was blocked in 5% skim milk solution for 1 hour. Anti-acetyl H3 antibody (1:2,000), anti-acetyl H4 antibody (1:5,000), anti-acetyl tubulin antibody (1:5,000) and anti-β-actin antibody (1:10,000) were added to 5% skim milk, and the membrane was immersed in the skim milk and allowed to react at 4° C. for 16 hours, after which it was washed three times with 1×TBS-T for 10 minutes each washing. IgG-HRP antibody (1:5,000) was added to 5% skim milk, and the membrane was immersed in the skim milk and allowed to react at room temperature for 40 minutes, after which it was washed three times with 1×TBS-T for 10 minutes each washing. Detection was performed by LAS 3000 using ECL solution.

[4] = tested on: CTLA4 expression in iTreg (CD4+CD25+Foxp3+) cells; assay: CTLA4 assay in induced regulatory T cells; assay type: cell-based, C57BL/6 mouse; conditions: 6 days incubation
Source text: In order to evaluate the effect of the compounds of the present invention on the expression of CTLA4, FOXP3+ induced regulatory T cells were induced from effector T cells (CD4+CD25−) isolated from the spleen of C57BL/6 mouse. Specifically, 6-week-old C57BL/6 mouse were purchased, and spleens were isolated therefrom, and separated into single cells by treatment with collagenase D. Effector T cells (CD4+CD25−, Teff) were separated from the mouse spleen cells using a CD4+CD25 regulatory T cell isolation kit (Miltenyi Biotec). Teff were plated on a 48-well plate at a density of 5×10^5 cells/well, and activated by adding a […] mAb-conjugated magnetic bead (T cell Activation/Expansion kit, Miltenyi Biotec) thereto. The activated cells were treated with TGF-β2 and each compound, and after 6 days, the cells were subjected to cell surface staining with CD4-PECy7 and CD25-APC (eBioscience) and to intracellular staining with FOXP3-Alexafluor488 and CTLA4-PE (eBioscience). Then, a change in the expression of CTLA4 in the induced regulatory T cells (iTreg) was analyzed by FACS Canto II (BD bioscience).

[5] = tested on: proliferation of effector T cells (Teff) co-cultured with Treg; assay: Regulatory T cell suppression function, Treg/Teff co-culture; assay type: cell-based, C57BL/6 mouse; conditions: Teff:Treg 2:1 co-culture, 3 days; vehicle group 27% suppression
Method: The effect of compound 636 on the proliferation of effector T cells in the co-culture condition of the regulatory T cells (Treg) and effector T cells (Teff) isolated from the spleen of C57BL/6 mouse was evaluated.
Specifically, 6-week-old C57BL/6 mouse were purchased, and spleens were isolated therefrom, and separated into single cells by treatment with collagenase D. Teff (CD4^+CD25^−) and Treg (CD4^+CD25^high) were isolated from the mouse spleen cells using a CD4^+CD25^high regulatory T cell isolation kit (Miltenyi Biotec). The Teff were stained with 5 μM Cell Proliferation Dye eFluor® 670 (eBioscience) at 37° C. under a light-shielded condition for 10 minutes, and incubated in cold complete media on ice for 5 minutes to stop the staining reaction, and then washed three times with complete media. The eFluor-stained effector T cells and the Treg were co-cultured on a U-bottom plate at a ratio of 2:1, and activated by adding a CD3εCD28 mAb-conjugated magnetic bead (T cell Activation/Expansion kit, Miltenyi Biotec) thereto. The activated cells were treated with compound 636, and after 3 days, the proliferation of the Teff was evaluated by analyzing the dilution pattern of eFluor® 670 with FACS Canto II (BD bioscience).

[6] = tested on: effector T cells (Teff); assay: Viability (death) of Teff cells; assay type: cell-based, C57BL/6 mouse; conditions: treated for 24 hours

SMILES | IC50 [1] | IC50 [2] | compound concentration at which tubulin acetylation (HDAC6) appeared [3] | increase of the expression of CTLA4 in the iTreg cells ([4]; concentration not stated separately) | increase of the expression of CTLA4 in the iTreg (CD4+CD25+Foxp3+) population ([4]; concentrations of 100 and 500 nM) | suppression ratio of Teff relative to the vehicle group [5] | viability of the Teff versus non-drug-treated group [6]
CC(C)(F)CN1CCN(c2ccnc3c2ccn3Cc2ccc(C(=O)NO)cc2)CC1 [Compound 642, 4-((4-(4-(2-fluoro-2-methylpropyl)piperazin-1-yl)-1H-pyrrolo[2,3-b]pyridin-1-yl)methyl)-N-hydroxybenzamide] | 9 nM | 4310 nM | about 300 nM | ≥ 2 times | – | – | –
CC(C)(F)CN1CCC(c2ccnc3c2ccn3Cc2ccc(C(=O)NO)cc2)CC1 [Compound 636, 4-((4-(1-(2-fluoro-2-methylpropyl)piperidin-4-yl)-1H-pyrrolo[2,3-b]pyridin-1-yl)methyl)-N-hydroxybenzamide] | 8 nM | 930 nM | about 300 nM | – | 1.5-2 times | 2 times | did not differ
